Measured values taken from ChEMBL document CHEMBL1201862, “PubChem BioAssay data set” (2004).
Where a name gives a salt, the structure may show the parent alone.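 96-well plates; 48 h exposure; 5 concentrations. Endpoints by linear interpolation between flanking doses. Not reached: highest tested concentration assigned. GI50 marks 50% less growth.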 The source made the active and inactive calls. No stated cut-off is given here; in the data, active = GI50 up to about 1.1 µM and inactive = higher.

Columns and labels:
Experiment in all cases: growth of human tumour cells (NCI), 48 h
SNB-75 = system: SNB-75
K562 = system: K562
HT-29 = system: HT-29
KM12 = system: KM12
NCI-H23 = system: NCI-H23
T47D = system: T47D
A549 = system: A549
UO-31 = system: UO-31
IGROV-1 = system: IGROV-1
HCC 2998 = system: HCC 2998
SNB-19 = system: SNB-19
BT-549 = system: BT-549
SF-268 = system: SF-268
SF-295 = system: SF-295
MCF7 = system: MCF7
OVCAR-3 = system: OVCAR-3
Malme-3M = system: Malme-3M
SK-MEL-2 = system: SK-MEL-2
A498 = system: A498
RXF 393 = system: RXF 393

Row | Structure (SMILES) | GI50 (SNB-75) | GI50 (K562) | GI50 (HT-29) | GI50 (KM12) | GI50 (NCI-H23) | GI50 (T47D) | GI50 (A549) | GI50 (UO-31) | GI50 (IGROV-1) | GI50 (HCC 2998) | GI50 (SNB-19) | GI50 (BT-549) | GI50 (SF-268) | GI50 (SF-295) | GI50 (MCF7) | GI50 (OVCAR-3) | GI50 (Malme-3M) | GI50 (SK-MEL-2) | GI50 (A498) | GI50 (RXF 393)
1 | C1CSCC2(COC2)CSCCSCC2(COC2)CS1 | 35.6 µM (inactive) | > 100 µM (inactive) | > 100 µM (inactive) | > 100 µM (inactive) | > 100 µM (inactive) | > 100 µM (inactive) | > 100 µM (inactive) | > 100 µM (inactive) | > 100 µM (inactive) | > 100 µM (inactive) | > 100 µM (inactive) | > 100 µM (inactive) | > 100 µM (inactive) | > 100 µM (inactive) | > 100 µM (inactive) | > 100 µM (inactive) | – | – | – | –
2 | CCOC(=O)c1nc2ccccc2nc1Nc1ccc(Cl)c(Cl)c1 | 20.9 µM (inactive) | 76.7 µM (inactive) | > 100 µM (inactive) | > 100 µM (inactive) | 33.7 µM (inactive) | 60.8 µM (inactive) | 59.4 µM (inactive) | 40.8 µM (inactive) | 32.5 µM (inactive) | > 100 µM (inactive) | 27.2 µM (inactive) | 12.8 µM (inactive) | 37.6 µM (inactive) | – | 70 µM (inactive) | 59.3 µM (inactive) | 16.2 µM (inactive) | 89.7 µM (inactive) | – | –
3 | O=C(OCCN1CCCCCC1)C(c1ccsc1)C1CCCCC1 (stereo not given) [CETIEDIL CITRATE] | 16.1 µM (inactive) | – | 11.9 µM (inactive) | 16.8 µM (inactive) | 18.5 µM (inactive) | 3.28 µM (inactive) | 19.4 µM (inactive) | 13.3 µM (inactive) | 11.1 µM (inactive) | 15.2 µM (inactive) | 18.7 µM (inactive) | 15.3 µM (inactive) | 17.6 µM (inactive) | 17.9 µM (inactive) | 16.7 µM (inactive) | 15 µM (inactive) | 14.4 µM (inactive) | – | – | –
4 | Cc1c(C)c(S(=O)(=O)N(CCCCCON)OCCCN)c(C)c2c1OC(C)(C)CC2 | 14.3 µM (inactive) | 3.94 µM (inactive) | 9.89 µM (inactive) | 13.9 µM (inactive) | 15.6 µM (inactive) | 5 µM (inactive) | 13.4 µM (inactive) | 16.6 µM (inactive) | 10 µM (inactive) | – | 15.5 µM (inactive) | 15.5 µM (inactive) | 16.8 µM (inactive) | 15.2 µM (inactive) | 8.18 µM (inactive) | 14.5 µM (inactive) | 14.3 µM (inactive) | 15.4 µM (inactive) | 14.6 µM (inactive) | 12.3 µM (inactive)
5 | CCc1nnc(S)n1/N=C\c1ccc(-c2ccccc2[N+](=O)[O-])o1 | 32.1 µM (inactive) | 27.9 µM (inactive) | 35.7 µM (inactive) | 31.8 µM (inactive) | 33.3 µM (inactive) | 43.9 µM (inactive) | 42.9 µM (inactive) | 41.5 µM (inactive) | 31.7 µM (inactive) | – | > 100 µM (inactive) | 28.8 µM (inactive) | 36.7 µM (inactive) | 28.7 µM (inactive) | 19.9 µM (inactive) | 18.2 µM (inactive) | 85.5 µM (inactive) | 29.4 µM (inactive) | 49.4 µM (inactive) | 63.5 µM (inactive)
6 | CN(Cc1cnc2nc(N)nc(N)c2n1)c1ccc(C(=O)NC(CO)CCCO)cc1 (stereo not given) | > 100 µM (inactive) | > 100 µM (inactive) | > 100 µM (inactive) | > 100 µM (inactive) | > 100 µM (inactive) | > 100 µM (inactive) | – | > 100 µM (inactive) | > 100 µM (inactive) | – | > 100 µM (inactive) | > 100 µM (inactive) | > 100 µM (inactive) | > 100 µM (inactive) | > 100 µM (inactive) | > 100 µM (inactive) | > 100 µM (inactive) | > 100 µM (inactive) | > 100 µM (inactive) | > 100 µM (inactive)
7 | O=S1(=O)c2ccccc2NC(=S)CC1c1ccccc1 (stereo not given) | > 100 µM (inactive) | > 100 µM (inactive) | > 100 µM (inactive) | > 100 µM (inactive) | > 100 µM (inactive) | > 100 µM (inactive) | > 100 µM (inactive) | > 100 µM (inactive) | > 100 µM (inactive) | – | > 100 µM (inactive) | > 100 µM (inactive) | > 100 µM (inactive) | 26.3 µM (inactive) | > 100 µM (inactive) | > 100 µM (inactive) | > 100 µM (inactive) | – | – | > 100 µM (inactive)
8 | Cc1ccc(S(=O)(=O)NC(=O)NC(CC(N)=O)C(=O)O)cc1 (stereo not given) | > 100 µM (inactive) | > 100 µM (inactive) | > 100 µM (inactive) | > 100 µM (inactive) | > 100 µM (inactive) | > 100 µM (inactive) | > 100 µM (inactive) | > 100 µM (inactive) | > 100 µM (inactive) | – | > 100 µM (inactive) | > 100 µM (inactive) | > 100 µM (inactive) | > 100 µM (inactive) | > 100 µM (inactive) | – | > 100 µM (inactive) | > 100 µM (inactive) | – | > 100 µM (inactive)
9 | COC(=O)C(Cc1ccccc1)OC(=O)C(N)CC(=O)O (stereo not given) | < 0.01 µM (active) | > 100 µM (inactive) | > 100 µM (inactive) | – | 5.11 µM (inactive) | > 100 µM (inactive) | > 100 µM (inactive) | > 100 µM (inactive) | > 100 µM (inactive) | > 100 µM (inactive) | > 100 µM (inactive) | > 100 µM (inactive) | > 100 µM (inactive) | > 100 µM (inactive) | > 100 µM (inactive) | > 100 µM (inactive) | > 100 µM (inactive) | > 100 µM (inactive) | – | > 100 µM (inactive)
10 | Cc1cc(C(=O)CBr)c(CN2C(=O)c3ccccc3C2=O)c(=O)n1C | 22.8 µM (inactive) | 3.19 µM (inactive) | 14.2 µM (inactive) | 19.5 µM (inactive) | 80.4 µM (inactive) | 25.5 µM (inactive) | 18.8 µM (inactive) | 18.4 µM (inactive) | 26.9 µM (inactive) | 38.1 µM (inactive) | 33.3 µM (inactive) | 18.1 µM (inactive) | 24.4 µM (inactive) | 38.5 µM (inactive) | 17.9 µM (inactive) | 17.2 µM (inactive) | 19.4 µM (inactive) | 27 µM (inactive) | – | 11 µM (inactive)
11 | CN(C(=O)[C@H](NC(=O)OCc1ccccc1)c1ccccc1)C1CCCCC1N1CCCC1 (stereo not given in full) | 97.3 µM (inactive) | 29 µM (inactive) | 38.1 µM (inactive) | > 100 µM (inactive) | > 100 µM (inactive) | > 100 µM (inactive) | > 100 µM (inactive) | 48.5 µM (inactive) | 70.3 µM (inactive) | – | > 100 µM (inactive) | > 100 µM (inactive) | 62.4 µM (inactive) | > 100 µM (inactive) | 98.2 µM (inactive) | > 100 µM (inactive) | 48.4 µM (inactive) | > 100 µM (inactive) | 89.9 µM (inactive) | 87.3 µM (inactive)
12 | c1ccc2c(-c3ccnc(-c4c[nH]c5ccccc45)n3)c[nH]c2c1 | – | 4.13 µM (inactive) | 2.7 µM (inactive) | 3.94 µM (inactive) | – | 3.85 µM (inactive) | 3.27 µM (inactive) | 3.98 µM (inactive) | < 0.01 µM (active) | 2.79 µM (inactive) | 4.81 µM (inactive) | > 100 µM (inactive) | 10.6 µM (inactive) | 2.93 µM (inactive) | 2.74 µM (inactive) | 6.4 µM (inactive) | – | 4.16 µM (inactive) | 2.23 µM (inactive) | –
13 | CC(=O)Oc1ccc2c3c1O[C@H]1[C@H](O)CC[C@@]4(O)[C@@H](C2)N(C)CC[C@]314 | – | – | > 100 µM (inactive) | > 100 µM (inactive) | > 100 µM (inactive) | > 100 µM (inactive) | > 100 µM (inactive) | > 100 µM (inactive) | > 100 µM (inactive) | – | > 100 µM (inactive) | > 100 µM (inactive) | > 100 µM (inactive) | > 100 µM (inactive) | > 100 µM (inactive) | > 100 µM (inactive) | > 100 µM (inactive) | > 100 µM (inactive) | > 100 µM (inactive) | –
14 | O=C(O)C1C2CC3C(OC(=O)C31)C2Br (stereo not given) | > 100 µM (inactive) | > 47.8 µM (inactive) | > 100 µM (inactive) | > 100 µM (inactive) | > 100 µM (inactive) | > 100 µM (inactive) | > 100 µM (inactive) | > 100 µM (inactive) | > 100 µM (inactive) | – | > 100 µM (inactive) | > 100 µM (inactive) | > 100 µM (inactive) | > 100 µM (inactive) | > 100 µM (inactive) | > 100 µM (inactive) | > 100 µM (inactive) | > 100 µM (inactive) | > 100 µM (inactive) | > 100 µM (inactive)
15 | CSCCCNC(=O)c1csc(-c2csc(CCN)n2)n1 | – | > 100 µM (inactive) | 82.8 µM (inactive) | > 100 µM (inactive) | > 100 µM (inactive) | 74.1 µM (inactive) | > 100 µM (inactive) | 38.6 µM (inactive) | 53.6 µM (inactive) | > 100 µM (inactive) | > 100 µM (inactive) | > 100 µM (inactive) | > 100 µM (inactive) | > 100 µM (inactive) | 74.1 µM (inactive) | > 100 µM (inactive) | 43.8 µM (inactive) | – | – | > 100 µM (inactive)
16 | COC(=O)CN(CC1O[C@@H]2OC(C)(C)O[C@@H]2C1N=[N+]=[N-])C(=O)OCc1ccccc1 (stereo not given in full) | > 100 µM (inactive) | 57 µM (inactive) | > 100 µM (inactive) | > 100 µM (inactive) | – | > 100 µM (inactive) | > 100 µM (inactive) | > 100 µM (inactive) | > 100 µM (inactive) | > 100 µM (inactive) | > 100 µM (inactive) | > 100 µM (inactive) | > 100 µM (inactive) | > 100 µM (inactive) | > 100 µM (inactive) | > 100 µM (inactive) | – | > 100 µM (inactive) | > 100 µM (inactive) | –
